According to PubChem BioAssay AID1159565 (GlaxoSmithKline (GSK), 2015):
pIC50: −log10 of the molar value. Calls of active or inactive are those of the source. No rule for the calls is given here.

Tested on: T. cruzi-infected H9C2 cardiomyocytes, high-content imaging
Assay: intracellular T. cruzi amastigote inhibition, imaging, H9C2 host cardiomyocytes, host toxicity (AID 1159565);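 also: infected cells incubated 72 h after plating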
[1] = measured here: H9C2 host cell toxicity
[2] = measured here: amastigotes per cell

| SMILES | pIC50 | pIC50 [1] | pIC50 [2] | IC50 |
| --- | --- | --- | --- | --- |
| Nc1nc(-c2ccccn2)nc(N)c1Cc1c(F)cccc1Cl | 5.70 | 5.89 | 5.80 |  |
| COc1ccc(CNc2nsc3ccccc23)cc1OC | 4.60 | < 4.30 | 4.70 |  |
| O=C(Nc1ccc(Br)c(Cl)c1)Nc1ccc2c(c1)OCO2 | 5.30 | < 4.30 | 5.70 |  |
| Cc1ccc(Nc2nc(-c3ccccn3)cc(N3CCCC(O)C3)n2)cc1 (stereo not drawn) | 5.20 | 6.30 | 5.60 |  |
| COc1cccc(Nc2cc(C)nc(-c3ccccn3)n2)c1 | 4.89 | 5.30 | 5.10 |  |
| CN(C)CCN(C)Cc1ccc(Cl)cc1NS(=O)(=O)c1ccc(Cl)c(Cl)c1 | 5.70 | 5.30 | 5.70 |  |
| O=C(CN1CCN(c2ccccn2)CC1)Nc1cc(S(=O)(=O)N2CCCCCC2)ccc1Cl | 5.10 | < 4.30 | 5.20 |  |
| Cc1ccc2nc(N(Cc3cccnc3)C(=O)CCc3ccccc3)sc2c1 | 7.40 | < 4.30 | 7.49 |  |
| CN(C)CCOc1ccc(N2CCN(S(=O)(=O)c3ccc(Cl)cc3)CC2)cc1 | 6.20 | < 4.30 | 6.30 |  |
| O=C(CN(Cc1ccccn1)Cc1ccccn1)NCc1ccc2c(c1)OCO2 | 4.89 | < 4.10 | 5.20 |  |
| Cc1ccc2c(c1)-c1onc(C(=O)N3CCCCC3c3cccnc3)c1CO2 (stereo not drawn) | 6.89 | < 4.30 | 6.89 |  |
| CNc1nc(C)nc(N2CCc3cc(C(=O)NCc4ccc(-c5ccn[nH]5)cc4Cl)ccc32)n1 |  | 4.70 | < 4.30 | > 50 µM (inactive) |
| COc1cccc(S(=O)(=O)Nc2ccc3c(c2)CC(N2CCC(NC(=O)C4CC4)CC2)C3)c1 (stereo not drawn) |  | < 4.30 | 4.49 | > 50 µM (inactive) |
| COCCn1c(-c2ccc3c(c2)OCO3)cnc1NCc1ccccc1OC | 4.70 | 4.40 | 5.10 |  |
| CNc1c(C(N)=O)c(-c2ccc3scnc3c2)nn1CC(F)(F)F | 6.60 | < 4.30 | 6.80 |  |
| Cc1cccnc1CN1CCN(CCCOc2ccc(-c3ccc(C(N)=O)cc3)cc2)CC1 | 4.70 | < 4.30 | 6.40 |  |
| c1cc(-c2ncc(-c3ccn[nH]3)s2)ccn1 | 6.60 | < 4.30 | 6.60 |  |
| O=C(Nc1cccc(S(=O)(=O)Nc2ccc(Br)cc2)c1)c1ccc([N+](=O)[O-])s1 | 6.89 | 5.60 | 7.00 |  |

| SMILES | pIC50 | pIC50 [1] | pIC50 [2] | IC50 |
| --- | --- | --- | --- | --- |
| O=C(N[C@H](CO)c1ccccc1)c1ccc(-c2c[nH]c3nccc(C(F)(F)F)c23)s1 | 5.00 | 4.89 | 5.00 |  |
| CC(C)CC(=O)Nc1cc(C2CC2)nn1-c1nc2c(c(=O)[nH]1)CCCC2 | 6.30 | 5.60 | 6.89 |  |
| COc1ccc2ncc(F)c(NC(=O)C3(O)CCC(NCc4ccc5c(c4)OCCO5)CC3)c2n1 (stereo not drawn) | 6.89 | 4.49 | 6.80 |  |
| O=C(Nc1nc(-c2ccccn2)cs1)c1ccc(S(=O)(=O)N2CCCCC2)cc1 | 6.20 | 5.60 | 6.40 |  |
| CC(C)N(C(=O)CN1C(=O)C(N)C(=O)N(c2ccccc2)c2ccccc21)c1ccccc1 (stereo not drawn) | 6.49 | < 4.30 | 6.40 |  |
| Cc1nc(-c2ccncc2)ncc1C(C)NC(=O)c1ccc(Cl)s1 (stereo not drawn) | 4.49 | < 4.30 | 4.70 |  |
| O=C(Cc1ccc2c(c1)CCC2)Nc1n[nH]c(-c2ccccn2)n1 | 5.00 | < 4.30 | 5.00 |  |
| Cc1cc2ncn(-c3ccc([N+](=O)[O-])cc3C#N)c2cc1C | 5.70 | < 4.30 | 6.10 |  |
| COc1ccc(C2C3CCCCC3(O)CCN2CC(=O)Nc2ccc(Cl)cc2Cl)cc1 (stereo not drawn) | 5.89 | 4.70 | 6.10 |  |
| CCc1cccc(-n2nc(OCC(=O)NC3CCCC3)c3cccnc32)c1 |  | < 4.30 | < 4.30 | > 50 µM (inactive) |
| CCS(=O)(=O)Nc1ccc(C2=NN(C(=O)c3cccs3)C(c3ccccc3OC)C2)cc1 (stereo not drawn) |  | < 4.30 | < 4.30 | > 50 µM (inactive) |
| CC(c1cc(Cl)cc(Cl)c1)N(C)c1ncc2c(N)nc(N)nc2n1 (stereo not drawn) | 8.70 | 5.10 | 9.00 |  |
| Cc1cc(C)cc(NS(=O)(=O)c2cc(-c3cc(C)[nH]n3)ccc2C)c1 | 5.80 | 4.49 | 5.89 |  |
| O=C(CCCNC(=O)c1ccc(Cl)cc1)Nc1nc(-c2ccccn2)cs1 | 4.60 | 4.60 | 5.00 |  |
| Cc1nc(N2CC(C)OC(C)C2)sc1C(=O)Nc1ccc2c(c1)OCO2 (stereo not drawn) | 5.40 | < 4.30 | 5.60 |  |
| Cc1ccc(NC(=O)c2ccnc(N3CCCC3)c2)cc1-c1cc(C(N)=O)ccc1C | 5.00 | < 4.30 | 5.49 |  |
| COc1ccccc1-n1c(SCC(=O)Nc2ccc3c(c2)OCO3)nc2c(c1=O)SCC2 | 4.80 | < 4.30 | 5.10 |  |
| COc1cc(C(C)C)c(S(C)(=O)=O)cc1C(=O)N1CCN(c2ccccc2Cl)CC1 | 5.60 | 4.70 | 5.70 |  |
